Where a name gives a salt, the structure may show the parent alone.
Molecular target: T1, Human Histamine H3 Receptor (Homo sapiens, UniProt Q9Y5N1)
T1 construct: expressed in transfected cells; host or cells: HEK293T (stably transfected; membranes prepared from the cells)
Assay: Methyl histamine binding in human histamine H3 receptor cell line
Details: read-out: H3 Binding Ki
In short: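 Radioligand binding on membranes (10 μg/well) from a human H3 receptor cell line, 1 nM radioligand, 1 h at 30° C. in 50 mM Tris pH 7.5. Nonspecific binding defined with 10 uM clobenpropit, followed by filtration and scintillation counting. IC50 from four-parameter fit, converted to Ki by Cheng-Prusoff.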

T1 sequence (Q9Y5N1 whole entry): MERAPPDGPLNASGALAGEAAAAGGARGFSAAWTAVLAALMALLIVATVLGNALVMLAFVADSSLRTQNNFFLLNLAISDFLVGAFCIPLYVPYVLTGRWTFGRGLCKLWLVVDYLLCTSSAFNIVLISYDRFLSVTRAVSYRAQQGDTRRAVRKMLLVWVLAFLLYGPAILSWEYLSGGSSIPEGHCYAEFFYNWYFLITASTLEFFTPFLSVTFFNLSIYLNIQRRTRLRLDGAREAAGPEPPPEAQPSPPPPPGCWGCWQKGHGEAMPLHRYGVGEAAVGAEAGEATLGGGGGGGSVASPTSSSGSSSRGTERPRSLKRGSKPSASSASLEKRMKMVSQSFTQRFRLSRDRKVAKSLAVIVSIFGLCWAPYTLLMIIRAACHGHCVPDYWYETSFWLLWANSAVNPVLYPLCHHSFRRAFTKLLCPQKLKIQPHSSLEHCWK

SMILES	Ki [nM]
NC(=O)c1ccc(-c2ccc3c(c2)CCN(CCN2CCCC2)C3)cc1 [Example 180, 4-[2-(2-pyrrolidin-1-ylethyl)-1,2,3,4-tetrahydroisoquinolin-6-yl]benzamide]	10.1 to 25
C[C@@H]1CCCN1CCN1CCc2cc(C(=O)N3CCCC3)ccc2C1=O [Example 151, 2-{2-[(2R)-2-methylpyrrolidin-1-yl]ethyl}-6-(pyrrolidin-1-ylcarbonyl)-3,4-dihydroisoquinolin-1(2H)-one]	< 10
C[C@@H]1CCCN1CCN1CCc2ccc(-c3ccc(C(=O)N4CCCC4)cc3)cc2C1=O [Example 86, 2-{2-[(2R)-2-methylpyrrolidin-1-yl]ethyl}-7-[4-(pyrrolidin-1-ylcarbonyl)phenyl]-3,4-dihydroisoquinolin-1(2H)-one]	< 10
CCN(CC)C(=O)c1ccc(-c2ccc3c(c2)CCN(CCN2CCCC2)C3=O)cc1 [Example 62, N,N-diethyl-4-[1-oxo-2-(2-pyrrolidin-1-ylethyl)-1,2,3,4-tetrahydroisoquinolin-6-yl]benzamide]	< 10
O=C(Nc1nccs1)c1ccc(-c2ccc3c(c2)CCN(CCN2CCCC2)C3=O)cc1 [Example 130, 4-[1-oxo-2-(2-pyrrolidin-1-ylethyl)-1,2,3,4-tetrahydroisoquinolin-6-yl]-N-1,3-thiazol-2-ylbenzamide]	< 10
C[C@@H]1CCCN1CCN1CCc2cc(-c3ccc(C(=O)NC4CC4)cc3)ccc2C1=O [Example 76, N-cyclopropyl-4-(2-{2-[(2R)-2-methylpyrrolidin-1-yl]ethyl}-1-oxo-1,2,3,4-tetrahydroisoquinolin-6-yl)benzamide]	< 10
C[C@@H]1CCCN1CCN1CCc2cc(Oc3ccc(C(=O)N4CCCC4)cc3)ccc2C1=O [Example 160, 2-{2-[(2R)-2-methylpyrrolidin-1-yl]ethyl}-6-[4-(pyrrolidin-1-ylcarbonyl)phenoxy]-3,4-dihydroisoquinolin-1(2H)-one hydrochloride]	< 10
COC[C@H](C)NC(=O)c1ccc(-c2ccc3c(c2)CCN(CCN2CCCC2)C3=O)cc1 [Example 126, N-[(1S)-2-methoxy-1-methylethyl]-4-[1-oxo-2-(2-pyrrolidin-1-ylethyl)-1,2,3,4-tetrahydroisoquinolin-6-yl]benzamide]	< 10
C[C@@H]1CCCN1CCN1CCc2cc(-c3ccc(C(=O)NC4CCCC4)cc3)ccc2C1=O [Example 80, N-cyclopentyl-4-(2-{2-[(2R)-2-methylpyrrolidin-1-yl]ethyl}-1-oxo-1,2,3,4-tetrahydroisoquinolin-6-yl)benzamide]	< 10
O=C(NC1CCC1)c1ccc(-c2ccc3c(c2)CCN(CCN2CCCC2)C3=O)cc1 [Example 63, N-cyclobutyl-4-[1-oxo-2-(2-pyrrolidin-1-ylethyl)-1,2,3,4-tetrahydroisoquinolin-6-yl]benzamide]	< 10
C[C@@H]1CCCN1CCN1CCc2cc(Oc3ccc(C#N)cn3)ccc2C1=O [Example 48, 6-[(2-{2-[(2R)-2-methylpyrrolidin-1-yl]ethyl}-1-oxo-1,2,3,4-tetrahydroisoquinolin-6-yl)oxy]nicotinonitrile]	< 10
CCOCCNC(=O)c1ccc(-c2ccc3c(c2)CCN(CCN2CCCC2)C3=O)cc1 [Example 72, N-(2-ethoxyethyl)-4-[1-oxo-2-(2-pyrrolidin-1-ylethyl)-1,2,3,4-tetrahydroisoquinolin-6-yl]benzamide]	10.1 to 25
O=C1c2ccc(-n3cccn3)cc2CCN1CCN1CCCC1 [Example 37, 6-(1H-pyrazol-1-yl)-2-(2-(pyrrolidin-1-yl)ethyl)-3,4-dihydroisoquinolin-1(2H)-one hydrochloride]	10.1 to 25
CNC(=O)c1ccc(-c2ccc3c(c2)CN(CCN2CCC[C@H]2C)C3=O)cc1 [Example 118, N-methyl-4-(2-{2-[(2R)-2-methylpyrrolidin-1-yl]ethyl}-1-oxo-2,3-dihydro-1H-isoindol-5-yl)benzamide]	50.1 to 100
C[C@@H]1CCCN1CCN1CCc2cc(-c3ccc(F)cc3)ccc2C1=O [Example 40, 6-(4-fluorophenyl)-2-{2-[(2R)-2-methylpyrrolidin-1-yl]ethyl}-3,4-dihydroisoquinolin-1(2H)-one]	< 10
C[C@H]1CCCN1C(=O)c1ccc(-c2ccc3c(c2)CCN(CCN2CCCC2)C3=O)cc1 [Example 81, 6-(4-{[(2S)-2-methylpyrrolidin-1-yl]carbonyl}phenyl)-2-(2-pyrrolidin-1-ylethyl)-3,4-dihydroisoquinolin-1(2H)-one]	< 10

Further lines, results first:

Ki [nM]	SMILES
< 10	O=C1c2ccc(-c3ccc(F)cc3F)cc2CCN1CCN1CCCC1 [Example 11, 6-(2,4-difluorophenyl)-2-(2-pyrrolidin-1-ylethyl)-3,4-dihydroisoquinolin-1(2H)-one]
< 10	CN(C)C(=O)c1cc(-c2ccc3c(c2)CCN(CCN2CCCC2)C3=O)ccc1F [Example 132, 2-fluoro-N,N-dimethyl-5-[1-oxo-2-(2-pyrrolidin-1-ylethyl)-1,2,3,4-tetrahydroisoquinolin-6-yl]benzamide]
25.1 to 50	O=C1c2ccc(-c3cccc(OC(F)(F)F)c3)cc2CCN1CCN1CCCC1 [Example 13, 2-(2-pyrrolidin-1-ylethyl)-6-[3-(trifluoromethoxy)phenyl]-3,4-dihydroisoquinolin-1(2H)-one]
< 10	O=C1c2ccc(-c3cccc(C(F)(F)F)c3)cc2CCN1CCN1CCCC1 [Example 20, 2-(2-pyrrolidin-1-ylethyl)-6-[3-(trifluoromethyl)phenyl]-3,4-dihydroisoquinolin-1(2H)-one]
< 10	CN(C)C(=O)c1ccc(-c2ccc3c(c2)CCN(CCN2CCCC2)C3=O)cc1 [Example 56, N,N-dimethyl-4-[1-oxo-2-(2-pyrrolidin-1-ylethyl)-1,2,3,4-tetrahydroisoquinolin-6-yl]benzamide]
< 10	O=C1c2ccc(-c3cc(F)cc(F)c3)cc2CCN1CCN1CCCC1 [Example 10, 6-(3,5-difluorophenyl)-2-(2-pyrrolidin-1-ylethyl)-3,4-dihydroisoquinolin-1(2H)-one]
< 10	CNC(=O)c1ccc(-c2ccc3c(c2)CCN(CCN2CCCC2)C3=O)cc1 [Example 59, N-methyl-4-[1-oxo-2-(2-pyrrolidin-1-ylethyl)-1,2,3,4-tetrahydroisoquinolin-6-yl]benzamide]
< 10	CCNC(=O)c1ccc(-c2ccc3c(c2)CCN(CCN2CCCC2)C3=O)c(F)c1 [Example 140, N-ethyl-3-fluoro-4-[1-oxo-2-(2-pyrrolidin-1-ylethyl)-1,2,3,4-tetrahydroisoquinolin-6-yl]benzamide]
< 10	O=C1c2ccc(-c3ccc(C(F)(F)F)cc3)cc2CCN1CCN1CCCC1 [Example 22, 2-(2-pyrrolidin-1-ylethyl)-6-[4-(trifluoromethyl)phenyl]-3,4-dihydroisoquinolin-1(2H)-one]
< 10	N#Cc1cccc(-c2ccc3c(c2)CCN(CCN2CCCC2)C3=O)c1 [Example 15, 3-[1-oxo-2-(2-pyrrolidin-1-ylethyl)-1,2,3,4-tetrahydroisoquinolin-6-yl]benzonitrile]

System: not given
Assay: not given
Details: not given

melting point [°C]	SMILES
228 to 230	CCNC(=O)c1ccc(-c2ccc3c(c2)CCN(CCN2CCC[C@H]2C)C3=O)cc1 (as salt: hydrochloride) [Example 75, N-ethyl-4-(2-{2-[(2R)-2-methylpyrrolidin-1-yl]ethyl}-1-oxo-1,2,3,4-tetrahydroisoquinolin-6-yl)benzamide]
